Test results as given in PubChem BioAssay (NCI).
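Briefly, cells in 96-well plates were exposed to five compound concentrations for 48 h, and endpoints were estimated by linear interpolation. Definition used: TGI = concentration required for complete inhibition of growth.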

Legend:
Assay in all cases: NCI-60 cell line screen, 48 h
SK-MEL-5 melanoma = test system: SK-MEL-5 melanoma
HCC-2998 colon = test system: HCC-2998 colon
M14 melanoma = test system: M14 melanoma
BT-549 breast = test system: BT-549 breast
MOLT-4 leukemia = test system: MOLT-4 leukemia
ACHN renal = test system: ACHN renal
HT29 colon = test system: HT29 colon
NCI-H226 lung = test system: NCI-H226 lung
IGROV1 ovarian = test system: IGROV1 ovarian
HS 578T breast = test system: HS 578T breast
HCT-15 colon = test system: HCT-15 colon
K-562 leukemia = test system: K-562 leukemia
UACC-257 melanoma = test system: UACC-257 melanoma
OVCAR-5 ovarian = test system: OVCAR-5 ovarian
RPMI-8226 leukemia = test system: RPMI-8226 leukemia
A498 renal = test system: A498 renal
NCI-H23 lung = test system: NCI-H23 lung
MDA-MB-231 breast = test system: MDA-MB-231 breast
MALME-3M melanoma = test system: MALME-3M melanoma
OVCAR-3 ovarian = test system: OVCAR-3 ovarian
UACC-62 melanoma = test system: UACC-62 melanoma
A549 NSCLC = test system: A549 NSCLC
RXF 393 renal = test system: RXF 393 renal
KM12 colon = test system: KM12 colon
MDA-N = test system: MDA-N
SF-539 CNS = test system: SF-539 CNS
SK-MEL-28 melanoma = test system: SK-MEL-28 melanoma
DU-145 prostate = test system: DU-145 prostate
OVCAR-4 ovarian = test system: OVCAR-4 ovarian
786-0 renal = test system: 786-0 renal
NCI/ADR-RES ovarian = test system: NCI/ADR-RES ovarian
NCI-H522 lung = test system: NCI-H522 lung
SK-MEL-2 melanoma = test system: SK-MEL-2 melanoma
SW-620 colon = test system: SW-620 colon
SK-OV-3 ovarian = test system: SK-OV-3 ovarian
MCF7 breast = test system: MCF7 breast
SF-295 CNS = test system: SF-295 CNS
SNB-19 CNS = test system: SNB-19 CNS
HOP-92 NSCLC = test system: HOP-92 NSCLC
SF-268 CNS = test system: SF-268 CNS
NCI-H460 lung = test system: NCI-H460 lung
T-47D breast = test system: T-47D breast
HL-60(TB) leukemia = test system: HL-60(TB) leukemia
MDA-MB-435 = test system: MDA-MB-435
SR leukemia = test system: SR leukemia
PC-3 prostate = test system: PC-3 prostate
COLO 205 colon = test system: COLO 205 colon
UO-31 renal = test system: UO-31 renal
OVCAR-8 ovarian = test system: OVCAR-8 ovarian
U251 CNS = test system: U251 CNS
HCT-116 colon = test system: HCT-116 colon
CCRF-CEM leukemia = test system: CCRF-CEM leukemia
TK-10 renal = test system: TK-10 renal
EKVX NSCLC = test system: EKVX NSCLC
SN12C renal = test system: SN12C renal
HOP-62 NSCLC = test system: HOP-62 NSCLC
SNB-75 CNS = test system: SNB-75 CNS
LOX IMVI melanoma = test system: LOX IMVI melanoma
CAKI-1 renal = test system: CAKI-1 renal

`OC(CN1CCCCC1)c1ccc(/C=C/c2ccc(Cl)cc2)cc1` (centres undefined) gave a TGI (SK-MEL-5 melanoma) of 43.8 µM, a TGI (HCC-2998 colon) greater than 100000 nM and a TGI (M14 melanoma) of 41.9 µM. For the same compound, the TGI (BT-549 breast) was greater than 100000 nM, the TGI (MOLT-4 leukemia) was greater than 100000 nM and the TGI (ACHN renal) was greater than 100000 nM. It also gave a TGI (HT29 colon) greater than 100000 nM, a TGI (NCI-H226 lung) greater than 100 µM and a TGI (IGROV1 ovarian) of 66.5 µM. For the same compound, the TGI (HS 578T breast) was greater than 100000 nM, the TGI (HCT-15 colon) was 76.3 µM and the TGI (K-562 leukemia) was greater than 100000 nM. It also gave a TGI (UACC-257 melanoma) of 46.7 µM, a TGI (OVCAR-5 ovarian) greater than 100 µM and a TGI (RPMI-8226 leukemia) greater than 100000 nM. It also gave a TGI (A498 renal) greater than 100 µM, a TGI (NCI-H23 lung) greater than 100000 nM and a TGI (MDA-MB-231 breast) greater than 100000 nM. It also gave a TGI (MALME-3M melanoma) greater than 100000 nM, a TGI (OVCAR-3 ovarian) greater than 100000 nM and a TGI (UACC-62 melanoma) of 44.9 µM. It also gave a TGI (A549 NSCLC) greater than 100 µM, a TGI (RXF 393 renal) greater than 100000 nM and a TGI (KM12 colon) of 40.3 µM. The TGI (MDA-N) was greater than 100000 nM, the TGI (SF-539 CNS) was greater than 100000 nM and the TGI (SK-MEL-28 melanoma) was 42.6 µM. For the same compound, the TGI (DU-145 prostate) was greater than 100000 nM, the TGI (OVCAR-4 ovarian) was greater than 100000 nM and the TGI (786-0 renal) was greater than 100000 nM. It also gave a TGI (NCI/ADR-RES ovarian) greater than 100000 nM, a TGI (NCI-H522 lung) of 72.7 µM and a TGI (SK-MEL-2 melanoma) of 50.9 µM. The TGI (SW-620 colon) was greater than 100000 nM, the TGI (SK-OV-3 ovarian) was greater than 100000 nM and the TGI (MCF7 breast) was greater than 100000 nM. It also gave a TGI (SF-295 CNS) greater than 100000 nM, a TGI (SNB-19 CNS) greater than 100 µM and a TGI (HOP-92 NSCLC) greater than 100000 nM. The TGI (SF-268 CNS) was greater than 100000 nM, the TGI (NCI-H460 lung) was greater than 100000 nM and the TGI (T-47D breast) was greater than 100000 nM. The TGI (HL-60(TB) leukemia) was greater than 100 µM, the TGI (MDA-MB-435) was greater than 100000 nM and the TGI (SR leukemia) was greater than 100 µM. For the same compound, the TGI (PC-3 prostate) was greater than 100000 nM, the TGI (COLO 205 colon) was 36 µM and the TGI (UO-31 renal) was greater than 100000 nM. The TGI (OVCAR-8 ovarian) was greater than 100000 nM, the TGI (U251 CNS) was greater than 100000 nM and the TGI (HCT-116 colon) was greater than 100000 nM. It also gave a TGI (CCRF-CEM leukemia) greater than 100000 nM, a TGI (TK-10 renal) greater than 100000 nM and a TGI (EKVX NSCLC) greater than 100 µM. For the same compound, the TGI (SN12C renal) was greater than 100000 nM and the TGI (HOP-62 NSCLC) was greater than 100000 nM.

For `O=C1c2cc([N+](=O)[O-])sc2C(=O)c2ccsc21`, the TGI (SK-MEL-5 melanoma) was 0.336 µM, the TGI (HCC-2998 colon) was 1700 nM and the TGI (M14 melanoma) was 0.663 µM. It also gave a TGI (BT-549 breast) of 1270 nM, a TGI (MOLT-4 leukemia) of 456 nM and a TGI (ACHN renal) of 768 nM. It also gave a TGI (HT29 colon) of 1480 nM, a TGI (NCI-H226 lung) of 3.09 µM and a TGI (IGROV1 ovarian) of 0.878 µM. The TGI (HS 578T breast) was 1850 nM, the TGI (HCT-15 colon) was 0.815 µM and the TGI (K-562 leukemia) was 191 nM. The TGI (UACC-257 melanoma) was 0.641 µM, the TGI (SNB-75 CNS) was 2710 nM and the TGI (OVCAR-5 ovarian) was 3.22 µM. It also gave a TGI (RPMI-8226 leukemia) of 751 nM, a TGI (A498 renal) of 4.37 µM and a TGI (NCI-H23 lung) of 1150 nM. The TGI (MDA-MB-231 breast) was 1150 nM, the TGI (MALME-3M melanoma) was 327 nM and the TGI (OVCAR-3 ovarian) was 209 nM. For the same compound, the TGI (UACC-62 melanoma) was 0.433 µM, the TGI (A549 NSCLC) was 3.51 µM and the TGI (RXF 393 renal) was 1050 nM. It also gave a TGI (KM12 colon) of 1.77 µM, a TGI (MDA-N) of 378 nM and a TGI (SF-539 CNS) of 938 nM. The TGI (SK-MEL-28 melanoma) was 0.555 µM, the TGI (DU-145 prostate) was 674 nM and the TGI (OVCAR-4 ovarian) was 947 nM. The TGI (LOX IMVI melanoma) was 225 nM, the TGI (786-0 renal) was 948 nM and the TGI (NCI/ADR-RES ovarian) was 2780 nM. For the same compound, the TGI (NCI-H522 lung) was 0.379 µM, the TGI (SK-MEL-2 melanoma) was 3.11 µM and the TGI (SW-620 colon) was 779 nM. The TGI (SK-OV-3 ovarian) was 2950 nM, the TGI (MCF7 breast) was 690 nM and the TGI (SF-295 CNS) was 993 nM. For the same compound, the TGI (SNB-19 CNS) was 3.33 µM, the TGI (HOP-92 NSCLC) was 443 nM and the TGI (SF-268 CNS) was 1060 nM. For the same compound, the TGI (NCI-H460 lung) was 853 nM, the TGI (T-47D breast) was 1530 nM and the TGI (MDA-MB-435) was 334 nM. It also gave a TGI (SR leukemia) of less than 0.0235 µM, a TGI (PC-3 prostate) of 1800 nM and a TGI (COLO 205 colon) of 1.66 µM. The TGI (UO-31 renal) was 2590 nM, the TGI (OVCAR-8 ovarian) was 2010 nM and the TGI (U251 CNS) was 373 nM. The TGI (HCT-116 colon) was 816 nM, the TGI (CCRF-CEM leukemia) was 227 nM and the TGI (TK-10 renal) was 1990 nM. The TGI (EKVX NSCLC) was 3.01 µM, the TGI (CAKI-1 renal) was 2550 nM and the TGI (SN12C renal) was 1330 nM. It also gave a TGI (HOP-62 NSCLC) of 486 nM.
